In patent US20030176436A1, “Novel heterocyclic compounds as selective bacterial DHFR inhibitors and their uses thereof” (priority 2001, published 2003):
Converted amounts (≈) assume the structure as drawn.

biological target: T1, bacterial DHFR (bDHFR) (Escherichia coli, UniProt P0ABQ4); experiment: DHFR enzyme assay, Ki determination, bacterial DHFR; format: biochemical, E. coli; details: average; read-out: bDHFR Ki/(μM) avg
T1 construct: gift of Eric Brown, McMaster University
Method: Human and Bacterial DHFR: E. coli DHFR was kindly provided by Eric Brown of MacMaster University.
Dihydrofolic acid and NADPH were purchased from Sigma. Enzyme assays were adapted for microtitre format from a previously published procedure (2, 3). All assays were performed in a 250 μl volume in 96-well microtitre plates. Typical assays consisted of 20 nM DHFR (human or E. coli), 100 μM NADPH, and 50 μM dihydrofolic acid in 100 mM HEPES pH 8, 10 mM KCl, and 10 mM MgCl2. The assay was monitored spectrophotometrically for the conversion of NADPH to NADP+, which results in a decrease in absorbance at 340 nm.
The reaction was initiated by the addition of 125 μl of 100 μM dihydrofolic acid. The final concentrations in the assay were 20 nM DHFR, 100 μM NADPH, 50 μM dihydrofolic acid, and a range of 500 μM to 20 nM inhibitor compound. The final DMSO concentration was 2% of the total volume. Reactions were monitored as described above.

Question: With `CN(Cc1cnc2nc(N)nc(N)c2n1)c1cccc([N+](=O)[O-])c1` [Compound 21] as the molecule, how does the Ki read?
Answer: Its Ki is 0.082 µM.

Question: For `Cc1ccc([C@@H](C)N(CC2CC2)c2ncc3c(N)nc(N)nc3n2)c2ccccc12` [Compound 54], which Ki is on record?
Answer: Its Ki is 0.01 µM.

Question: Which Ki does the source give for `Cc1ccc(C(C)N(CC2CC2)c2ncc3c(N)nc(N)nc3n2)c2ccccc12` (stereo not shown) [Compound 52] here?
Answer: The Ki was 0.022 µM.

Question: `CCN(c1ncc2c(N)nc(N)nc2n1)C(C)c1cccc2ccccc12` (stereo not shown) [Compound 45] was tested. Which Ki did it give?
Answer: The Ki was 0.008 µM.

Question: For `CCc1ccc2ccccc2c1C(C)N(C)c1ncc2c(N)nc(N)nc2n1` (stereo not shown) [Compound 56], which Ki is on record?
Answer: The Ki was 0.093 µM.

Question: How did the Ki turn out when `CC(c1ccnc2ccccc12)N(C)c1ncc2c(N)nc(N)nc2n1` (stereo not shown) [Compound 39] was run?
Answer: The Ki was 0.015 µM.

Question: How did the Ki turn out when `CC(c1cccc2ccccc12)N(CCc1cccc(F)c1)c1ncc2c(N)nc(N)nc2n1` (stereo not shown) [Compound 47] was run?
Answer: The Ki was 0.023 µM.

Question: How did the Ki turn out when `CC(c1ccc(OCc2c(F)cccc2Cl)cc1)N(C)c1ncc2c(N)nc(N)nc2n1` (stereo not shown) [Compound 48] was run?
Answer: The Ki was 0.007 µM.

Question: For `CC(c1c2c(cc3ccccc13)CCCC2)N(CC1CC1)c1ncc2c(N)nc(N)nc2n1` (stereo not shown) [Compound 31], which Ki is on record?
Answer: Its Ki is 0.024 µM.

Question: How did the Ki turn out when `C=CCN(Cc1cnc2nc(N)nc(N)c2n1)c1ccccc1` [Compound 46] was run?
Answer: Its Ki is 0.093 µM.

Question: How did the Ki turn out when `CCN(c1ncc2c(N)nc(N)nc2n1)[C@H](C)c1ccc(F)c2ccccc12` [Compound 37] was run?
Answer: Its Ki is 0.003 µM.

Question: For `CC(c1cc(Cl)cc2ccccc12)N(C)c1ncc2c(N)nc(N)nc2n1` (stereo not shown) [Compound 35], which Ki is on record?
Answer: The Ki was 0.037 µM.

Question: `CCCC(c1cccc2ccccc12)N(C)c1ncc2c(N)nc(N)nc2n1` (stereo not shown) [Compound 43] was tested. Which Ki did it give?
Answer: Its Ki is 0.004 µM.

Question: Which Ki does the source give for `CCC(c1ccc(F)c2ccccc12)N(C)c1ncc2c(N)nc(N)nc2n1` (stereo not shown) [Compound 40] here?
Answer: Its Ki is 0.004 µM.

Question: `C=CCN(c1ncc2c(N)nc(N)nc2n1)C(C)c1cccc2ccccc12` (stereo not shown) [Compound 34] was tested. Which Ki did it give?
Answer: Its Ki is 0.014 µM.

Question: How did the Ki turn out when `CC(c1cccc2ccccc12)N(C)c1ncc2c(N)nc(N)nc2n1` (stereo not shown) [Compound 24] was run?
Answer: Its Ki is 0.015 µM.

Question: Which Ki does the source give for `CC(c1cccc2ccccc12)N(CCCCO)c1ncc2c(N)nc(N)nc2n1` (stereo not shown) [Compound 58] here?
Answer: Its Ki is 0.015 µM.

Question: For `CCC(c1ccc(Cl)c2ccccc12)N(C)c1ncc2c(N)nc(N)nc2n1` (stereo not shown) [Compound 44], which Ki is on record?
Answer: The Ki was 0.004 µM.

Question: How did the Ki turn out when `CC(c1cccc2ccccc12)N(CCC(C)(C)C)c1ncc2c(N)nc(N)nc2n1` (stereo not shown) [Compound 60] was run?
Answer: Its Ki is 0.029 µM.

Question: `CCN(c1ncc2c(N)nc(N)nc2n1)[C@H](C)c1ccc(C)c2ccccc12` [Compound 32] was tested. Which Ki did it give?
Answer: The Ki was 0.011 µM.

same assay, conditions: bDHFR Ki/(μM) avg, average

Question: Which Ki does the source give for `CCC(c1cccc2ccccc12)N(C)c1ncc2c(N)nc(N)nc2n1` (stereo not shown) [Compound 33] here?
Answer: The Ki was 0.012 µM.

same assay, conditions: second part of table; read-out: bDHFR

Question: With `Nc1nc(N)c2nc(CNc3ccc(Cl)c4ccccc34)cnc2n1` [Compound 63] as the molecule, how does the Ki read?
Answer: The Ki was 0.104 µM.

Question: With `CCC(c1cccc2ccccc12)N(C)c1ncc2c(N)nc(N)nc2n1` (stereo not shown) [Compound 33] as the molecule, how does the Ki read?
Answer: The Ki was 0.012 µM.

Question: How did the Ki turn out when `CN(Cc1cnc2nc(N)nc(N)c2n1)c1cccc([N+](=O)[O-])c1` [Compound 21] was run?
Answer: Its Ki is 0.082 µM.

Question: How did the Ki turn out when `Cc1ccc(C(F)(F)F)cc1NCc1cnc2nc(N)nc(N)c2n1` [Compound 64] was run?
Answer: The Ki was 0.385 µM.

system: S. aureus; experiment: Microdilution antimicrobial susceptibility test (MIC); format: cell-based; details: Staphylococcus aureus; MIC, average; read-out: S. aureus (μg/ml) avg
Method: Stock solutions of tested compounds were prepared in N,N-dimethylformamide (DMF) at a concentration of 5 mg/mL. Working solutions of the tested compounds were then prepared from the stock solutions, in Mueller-Hinton broth (MHB) with a starting concentration of 64 μg/mL.
Bacterial inocula were prepared from overnight culture (i.e., one fresh colony from agar plate in 5 ml MHB; H. influenzae was grown in MHB with the addition of yeast extract, haematin, and NAD), centrifuged 2×5 min/3000 rpm (for S. pneumoniae and H. influenzae, 2×10 min/3000 rpm), and dispensed in 5 ml of fresh MHB each time, such that the bacterial suspension is diluted to obtain 100 colony forming units (cfu) in a microplate well (100 μl total volume).
Microplate wells were filled with two-fold dilutions of test compound (50 μl), starting with 64 μg/ml. Wells were then filled with 50 μl of bacterial inoculum (final volume: 100 μl/well). The plates were incubated at 37° C. for 18-24 hours (S. pneumoniae was grown in a CO2-enriched atmosphere).

Question: `CCC(c1cccc2ccccc12)N(C)c1ncc2c(N)nc(N)nc2n1` (stereo not shown) [Compound 33] was tested. Which MIC did it give?
Answer: The MIC was 0.015 µg/mL (≈ 0.0417 µM).

Question: `CN(Cc1cnc2nc(N)nc(N)c2n1)c1cccc([N+](=O)[O-])c1` [Compound 21] was tested. Which MIC did it give?
Answer: Its MIC is under 0.125 µg/mL.

Question: `Cc1ccc([C@@H](C)N(CC2CC2)c2ncc3c(N)nc(N)nc3n2)c2ccccc12` [Compound 54] was tested. Which MIC did it give?
Answer: The MIC was 2 µg/mL (≈ 5.01 µM).

Question: For `Cc1ccc(C(C)N(CC2CC2)c2ncc3c(N)nc(N)nc3n2)c2ccccc12` (stereo not shown) [Compound 52], which MIC is on record?
Answer: The MIC was 2 µg/mL (≈ 5.01 µM).

Question: How did the MIC turn out when `CCN(c1ncc2c(N)nc(N)nc2n1)C(C)c1cccc2ccccc12` (stereo not shown) [Compound 45] was run?
Answer: Its MIC is 2 µg/mL (≈ 5.56 µM).

Question: With `CCc1ccc2ccccc2c1C(C)N(C)c1ncc2c(N)nc(N)nc2n1` (stereo not shown) [Compound 56] as the molecule, how does the MIC read?
Answer: The MIC was 2 µg/mL (≈ 5.36 µM).

Question: Which MIC does the source give for `CC(c1ccnc2ccccc12)N(C)c1ncc2c(N)nc(N)nc2n1` (stereo not shown) [Compound 39] here?
Answer: The MIC was 0.25 µg/mL (≈ 0.722 µM).

Question: For `CC(c1cccc2ccccc12)N(CCc1cccc(F)c1)c1ncc2c(N)nc(N)nc2n1` (stereo not shown) [Compound 47], which MIC is on record?
Answer: Its MIC is 2 µg/mL (≈ 4.41 µM).

Question: For `CC(c1ccc(OCc2c(F)cccc2Cl)cc1)N(C)c1ncc2c(N)nc(N)nc2n1` (stereo not shown) [Compound 48], which MIC is on record?
Answer: The MIC was 2 µg/mL (≈ 4.41 µM).

Question: `CC(c1c2c(cc3ccccc13)CCCC2)N(CC1CC1)c1ncc2c(N)nc(N)nc2n1` (stereo not shown) [Compound 31] was tested. Which MIC did it give?
Answer: The MIC was 1 µg/mL (≈ 2.27 µM).

Question: With `C=CCN(Cc1cnc2nc(N)nc(N)c2n1)c1ccccc1` [Compound 46] as the molecule, how does the MIC read?
Answer: Its MIC is 2 µg/mL (≈ 6.51 µM).

Question: `CCN(c1ncc2c(N)nc(N)nc2n1)[C@H](C)c1ccc(F)c2ccccc12` [Compound 37] was tested. Which MIC did it give?
Answer: The MIC was under 0.125 µg/mL.

Question: For `CC(c1cc(Cl)cc2ccccc12)N(C)c1ncc2c(N)nc(N)nc2n1` (stereo not shown) [Compound 35], which MIC is on record?
Answer: Its MIC is 0.5 µg/mL (≈ 1.32 µM).

Question: How did the MIC turn out when `CCCC(c1cccc2ccccc12)N(C)c1ncc2c(N)nc(N)nc2n1` (stereo not shown) [Compound 43] was run?
Answer: Its MIC is under 0.125 µg/mL.

Question: With `CCC(c1ccc(F)c2ccccc12)N(C)c1ncc2c(N)nc(N)nc2n1` (stereo not shown) [Compound 40] as the molecule, how does the MIC read?
Answer: Its MIC is under 0.125 µg/mL.

Question: `C=CCN(c1ncc2c(N)nc(N)nc2n1)C(C)c1cccc2ccccc12` (stereo not shown) [Compound 34] was tested. Which MIC did it give?
Answer: The MIC was 1 µg/mL (≈ 2.69 µM).

Question: How did the MIC turn out when `CC(c1cccc2ccccc12)N(C)c1ncc2c(N)nc(N)nc2n1` (stereo not shown) [Compound 24] was run?
Answer: The MIC was 0.25 µg/mL (≈ 0.724 µM).

Question: `CC(c1cccc2ccccc12)N(CCCCO)c1ncc2c(N)nc(N)nc2n1` (stereo not shown) [Compound 58] was tested. Which MIC did it give?
Answer: Its MIC is 2 µg/mL (≈ 4.96 µM).

Question: Which MIC does the source give for `CCC(c1ccc(Cl)c2ccccc12)N(C)c1ncc2c(N)nc(N)nc2n1` (stereo not shown) [Compound 44] here?
Answer: The MIC was under 0.125 µg/mL.

Question: For `CC(c1cccc2ccccc12)N(CCC(C)(C)C)c1ncc2c(N)nc(N)nc2n1` (stereo not shown) [Compound 60], which MIC is on record?
Answer: Its MIC is 2 µg/mL (≈ 4.81 µM).

Question: For `CCN(c1ncc2c(N)nc(N)nc2n1)[C@H](C)c1ccc(C)c2ccccc12` [Compound 32], which MIC is on record?
Answer: Its MIC is 0.5 µg/mL (≈ 1.34 µM).
